Structures can show the parent of a compound that is named as a salt.
test system: Jurkat T cells; format: cell-based, human; details: IL-2 production level in treated group compared to control group; 48 hours treatment, then anti-CD3/anti-CD28 12 hours
Text: Two preliminary screens were designed and performed.
To construct “blood chemical compound library for cell-based screening purposes, components such as antibodies that are difficult to distinguish due to a wide variety, and some supplements that only function at a whole organism level including fish oils and herbs were excluded. Physiological ranges of serum levels of individual blood chemicals are available in the human metabolome database (https://hmdb.ca/) and applied in the experimental design. For first screen 1a, Jurkat T cells were treated with blood chemical library for 48 hours and then activated with 2.5 μg/mL anti-CD3 and 0.5 μg/mL anti-CD28 antibodies for another 12 hours, followed by measurement of IL-2 level in medium supernatant using ELISA kit (Biolegend). For first screen 1b, 1×10^5 PD-1^+ Jurkat T cells were co-cultured with 2×10^4 H596 (PD-L1^+) cells in a well of 96-well plate for 60 hours, and then activated with 2.5 μg/mL anti-CD3 and 0.5 μg/mL anti-CD28 antibodies for another 12 hours, followed by measurement of IL-2 level in medium supernatant using ELISA kit. Please also refer to Resources Table and Table 1-2 for more details.

First: O=C(O)CCCC[C@@H]1SC[C@@H]2NC(=O)N[C@@H]21 [d-Biotin]
Second: Cc1cc(O)cc2c1O[C@](C)(CCC[C@H](C)CCC[C@H](C)CCCC(C)C)CC2 [(+)-DELTA-TOCOPHEROL]
The “Relative changed percentage (%)” value of the first is lower: 29.84% for the first, 41.42% for the second.

First: LECYSTOKININ FRAGMENT 26-33 AMIDE NON SULFA
Second: Cl.N[C@@H](Cc1c[nH]cn1)C(=O)O [L-Histidine hydrochloride]
The “Relative changed percentage (%)” value of the first is higher: 4.556% for the first, 3.531% for the second.

Going from `Nc1ncnc2c1ncn2[C@@H]1O[C@H](CO)[C@@H](O)[C@H]1O` [ADENOSINE FREE BASE] to `NC[C@H](O)c1ccc(O)c(O)c1` [NOREPINEPHRINE], the “Relative changed percentage (%)” value rises from 3.704% to 40.2469%.

Going from `CCCCC[C@H](O)CC(=O)CCc1ccc(O)c(OC)c1` [Compound 6-gingerol, 6-gingerol] to XANTHOPHYLL FROM MARIGOLD, the “Relative changed percentage (%)” value falls from 42.62% to 7.531%.

Going from `CS(C)(=O)=O` [Methylsulfonylmethane] to `CC1=CCCC(C)(C)C1/C=C/C(C)=C/C=C/C(C)=C/C=C/C=C(C)/C=C/C=C(C)/C=C/C1=C(C)CCCC1(C)C` (centres unmarked) [A-CAROTENE], the “Relative changed percentage (%)” value rises from −17.53% to 6.561%.

First: CC/C=C\C/C=C\C/C=C\CCCCCCCC(=O)O [Alpha-linolenic acid]
Second: Cn1c(=O)c2c(ncn2C)n(C)c1=O [Caffeine]
The “Relative changed percentage (%)” value of the first is lower: −24.53% for the first, 170.0384% for the second.

First: OC[C@H]1O[C@@](CO)(O[C@H]2O[C@H](CO)[C@@H](O)[C@H](O)[C@H]2O)[C@@H](O)[C@@H]1O [SUCROSE]
Second: C[C@]12CCC(=O)C=C1CC[C@@H]1[C@@H]2CC[C@@]2(C)[C@H]1CC[C@]2(O)C(=O)CO [11-DEOXYCORTISOL/Cortexolone, 11-DEOXYCORTISOL]
The “Relative changed percentage (%)” value of the first is higher: 70.45% for the first, 21.85% for the second.

Compared with `CCO` [ALCOHOL], `O=c1[nH]c(=O)c2[nH]c(=O)[nH]c2[nH]1` [URIC ACID] is lower in “Relative changed percentage (%)” value: 9.841% for the first, −6.651% for the second.

First: O=C(O)CC(O)C(=O)O (centres unmarked) [Malic acid]
Second: [Cl-].[Cl-].[Mg+2] [MAGNESIUM CHLORIDE ANHYDROUS]
The “Relative changed percentage (%)” value of the first is higher: 38.52% for the first, 31.9% for the second.

First: [O]=[Zn] [Zinc Oxide]
Second: [Cl-].[Na+] [SODIUM CHLORIDE]
The “Relative changed percentage (%)” value of the first is lower: 3.627% for the first, 36.53% for the second.

Compared with (−)-EPINEPHRINE, LEPTIN is lower in “Relative changed percentage (%)” value: 53.12% for the first, 27.09% for the second.

Compared with `NCC(=O)O` [Glycine], `N[C@@H](Cc1ccc(O)cc1)C(=O)O` [L-Tyrosine] is lower in “Relative changed percentage (%)” value: −8.966% for the first, −13.45% for the second.

Compared with `O=C1O[C@H]([C@@H](O)CO)C(O)=C1O` [L-ASCORBIC ACID], `N[C@@H](CS)C(=O)O` [L-Cysteine] is higher in “Relative changed percentage (%)” value: 14.49% for the first, 32.82% for the second.

Compared with GLYCOGEN, 2-DEOXY-L-RIBOSE/Deoxycytidine is higher in “Relative changed percentage (%)” value: 13.75% for the first, 36.7% for the second.

First: Gelatin
Second: Oc1ccc(C=Cc2cc(O)cc(O)c2)cc1 [Resveratrol]
The “Relative changed percentage (%)” value of the first is higher: 59.8% for the first, 13.16% for the second.

Compared with `O=P([O-])([O-])O.[K+].[K+]` [Dipotassium Phosphate], `OCC(O)CO` [GLYCEROL MOLECULAR BIOLOGY REAGENT, GLYCEROL] is higher in “Relative changed percentage (%)” value: −5.393% for the first, 39.3621% for the second.

Compared with `C[C@]12CC[C@@H]3c4ccc(O)cc4CC[C@H]3[C@@H]1CCC2=O` [ESTRONE], `N[C@@H](Cc1c[nH]c2ccccc12)C(=O)O` [L-Tryptophan] is lower in “Relative changed percentage (%)” value: 25.0199% for the first, 1.358% for the second.

Going from `CC[C@H](C)[C@H](N)C(=O)O` [L-Isoleucine] to `C=C1CC[C@H](O)C/C1=C/C=C1\CCC[C@]2(C)[C@@H]([C@H](C)/C=C/[C@H](C)C(C)C)CC[C@@H]12` [ERGOCALCIFEROL], the “Relative changed percentage (%)” value rises from −8.642% to 16.01%.

Going from `[S]=[Pb]` [LEAD(II) SULFIDE] to `N[C@@H](CCC(=O)N[C@@H](CS)C(=O)NCC(=O)O)C(=O)O` [L-GLUTATHIONE REDUCED], the “Relative changed percentage (%)” value rises from −13.63% to 48.28%.

Compared with `[F-].[Na+]` [Sodium Fluoride], Copper Gluconate is higher in “Relative changed percentage (%)” value: −43.81% for the first, 4.0672% for the second.

First: Chondroitin sulfate sodium
Second: O=P([O-])([O-])O.[K+].[K+] [Potassium Phosphate Dibasic]
The “Relative changed percentage (%)” value of the first is lower: −11.46% for the first, 177.4846% for the second.

Going from `O=C(O)C(=O)O` [OXALIC ACID SODIUM SALT] to `N[C@@H](CCC(=O)N[C@@H](CS)C(=O)NCC(=O)O)C(=O)O` [L-glutathione], the “Relative changed percentage (%)” value rises from −16.88% to 13.46%.

Compared with `CC1=C(/C=C/C(C)=C/C=C/C(C)=C/C=C/C=C(C)/C=C/C=C(C)/C=C/C2=C(C)C[C@@H](O)CC2(C)C)C(C)(C)C[C@H](O)C1` [Zcaxanthin], `CC1=C[C@H](O)CC(C)(C)[C@H]1/C=C/C(C)=C/C=C/C(C)=C/C=C/C=C(C)/C=C/C=C(C)/C=C/C1=C(C)C[C@@H](O)CC1(C)C` [Lutein] is higher in “Relative changed percentage (%)” value: −1.652% for the first, 31.92% for the second.

Going from `CC(C)CCCC(C)CCCC(C)CCCC(C)CC(=O)O` (centres unmarked) [PHYTANIC ACID] to `CC(=O)C(=O)O` [PYRUVIC ACID], the “Relative changed percentage (%)” value rises from −18.61% to 10.42%.

Going from `O=C([O-])CC(O)(CC(=O)[O-])C(=O)[O-].[Na+].[Na+].[Na+]` [Sodium citrate] to `CCCCC/C=C\C/C=C\C/C=C\CCCCC(=O)O` [Gamma linolenic acid], the “Relative changed percentage (%)” value falls from 13.84% to 9.058%.

First: COc1nc(N)nc2nc[nH]c12 [O-METHYLGUANINE]
Second: CHITIN
The “Relative changed percentage (%)” value of the first is higher: 6.274% for the first, 5.909% for the second.

First: CELLULOSE FIBROUS
Second: COc1cc(/C=C/c2ccc(O)cc2)cc(OC)c1 [Pterostibene]
The “Relative changed percentage (%)” value of the first is lower: −13.2% for the first, 6.874% for the second.

Going from `CC1=C[C@H](O)CC(C)(C)C1/C=C/C(C)=C/C=C/C(C)=C/C=C/C=C(C)/C=C/C=C(C)/C=C/C1=C(C)CCCC1(C)C` (some centres unmarked) [A-CRYPTOXANTHIN] to `CC/C=C\C/C=C\C/C=C\C/C=C\C/C=C\C/C=C\CCC(=O)O` [Docosahexaenoic Acid], the “Relative changed percentage (%)” value falls from 29.1% to −29.89%.

First: O=c1c(O)c(-c2ccc(O)c(O)c2)oc2cc(O)cc(O)c12 [Quercetin]
Second: Cl.NCCc1ccc(O)c(O)c1 [3-HYDRO[…]/dopamine, 3-HYDRO[…]]
The “Relative changed percentage (%)” value of the first is lower: −4.501% for the first, 18.78% for the second.

Going from Eicosatrienoic Acid to `N[C@@H](CSSC[C@H](N)C(=O)O)C(=O)O` [L-Cystine], the “Relative changed percentage (%)” value falls from 15.36% to −19.73%.

Going from “MANGANESE SULFATE MONOHYDRATE [MANGANESE SULFATE MONOHYDRATE,]” to “IZING HORMONE RELEASING HORMONE HUMAN AC”, the “Relative changed percentage (%)” value falls from −14.23% to −19.59%.

First: O=C(CO)[C@@H](O)[C@H](O)[C@H](O)CO [D(−)FRUCTOSE]
Second: O=C(O)CCC(=O)O [SUCCINIC ACID]
The “Relative changed percentage (%)” value of the first is lower: −25.52% for the first, 4.14% for the second.

For `CC/C=C\C/C=C\C/C=C\C/C=C\C/C=C\CCCCCC(=O)O` [Docosapentaenoic acid], the “Relative changed percentage (%)” value was −19.39%.
